Reference: ChEMBL document CHEMBL6121057, “Discovery of an Orally Bioavailable STING Inhibitor with In Vivo Anti-Inflammatory Activity in Mice with STING-Mediated Inflammation” (J Med Chem, 2025)

Legend:
[1] = Metabolic stability in human liver microsomes assessed as intrinsic clearance; format: ADME, Microsome; conditions: read-out: CLH
[2] = Metabolic stability in human liver microsomes assessed as half life; format: ADME, Microsome
[3] = Oral bioavailability in Sprague-Dawley rat at 10 mg/kg measured […] by LC-MS/MS analysis; format: ADME, organism-based; conditions: in vivo
[4] = AUC (0 to t) in Sprague-Dawley rat at 2 mg/kg, iv measured upto 60 mins by LC-MS/MS analysis; format: ADME, organism-based; conditions: in vivo
[5] = Tmax in Sprague-Dawley rat at 10 mg/kg, po measured […] by LC-MS/MS analysis; format: ADME, organism-based; conditions: in vivo
[6] = AUC (0 to t) in Sprague-Dawley rat at 10 mg/kg, po measured upto 60 mins by LC-MS/MS analysis; format: ADME, organism-based; conditions: in vivo
[7] = Half life in Sprague-Dawley rat at 2 mg/kg, iv measured upto 60 mins by LC-MS/MS analysis; format: ADME, organism-based; conditions: in vivo
[8] = Cmax in Sprague-Dawley rat at 2 mg/kg, iv measured […] by LC-MS/MS analysis; format: ADME, organism-based; conditions: in vivo
[9] = Tmax in Sprague-Dawley rat at 2 mg/kg, iv measured […] by LC-MS/MS analysis; format: ADME, organism-based; conditions: in vivo
[10] = Cmax in Sprague-Dawley rat at 10 mg/kg, po measured […] by LC-MS/MS analysis; format: ADME, organism-based; conditions: in vivo

O=C(Nc1ccc(C2CCC(F)(F)CC2)cc1)Nc1c[nH]c2ccc(F)cc12
CLint scaled [1]: 21.7 mL/min/kg
half-life [2]: 41 min

O=C(Nc1ccc(C(F)(F)F)cc1)Nc1c[nH]c2ccc(Cl)cc12
bioavailability [3]: 4.6%
AUC(0-t) at 1 h [4]: 536 ng·h/mL
Tmax [5]: 4.2 h
AUC(0-t) at 1 h [6]: 125 ng·h/mL
half-life [7]: 48 min
Cmax [8]: 842 ng/mL
Tmax [9]: 6 min
CLint scaled [1]: 6.4 mL/min/kg
Cmax [10]: 37 ng/mL
half-life [2]: 139 min

CCc1ccc(NC(=O)Nc2c[nH]c3ccccc23)cc1
bioavailability [3]: 0.6%
AUC(0-t) at 1 h [4]: 387 ng·h/mL
Tmax [5]: 0.8 h
AUC(0-t) at 1 h [6]: 12 ng·h/mL
half-life [7]: 12 min
Cmax [8]: 1320 ng/mL
Tmax [9]: 6 min
CLint scaled [1]: 143 mL/min/kg
Cmax [10]: 8 ng/mL
half-life [2]: 6.2 min

CCc1ccc(NC(=O)Nc2c[nH]c3ccc(F)cc23)cc1
CLint scaled [1]: 53 mL/min/kg
half-life [2]: 16.9 min
